Columns and labels:
[1] = system: human retinal endothelial cells; assay: Transendothelial electrical resistance (TER), Example 4, retinal cells; type: cell-based; details: 1 μM, retinal endothelial cell monolayers
Experimental: (§1) […]. Assays were also performed in the same manner using passage 8 human brain endothelial cells and passage 8 human umbilical vein endothelial cells.
(§2) An initial TER measurement was taken for each insert using EVOM^2 voltohmmeter connected to an STX100 electrode (both from World Precision Instruments). Measurements were also taken at 24, 48, 72 and 144 hours. All data are presented as TER measurements/cm^2 of insert with TER of blank inserts subtracted.

[2] = system: VE-Cadherin; assay: VE-cadherin phosphorylation (immunoprecipitation, Pro-Q diamond / SYPRO ruby densitometry); type: cell-based, human; details: danazol 0.1 μM, VEGF 50 ng/ml
Experimental: The plates were immediately treated to lyse the cells as follows. PBS and the lysis buffer (PBS containing 1% Triton X-100 supplemented with phosphatase inhibitor solutions 1 and 2 (Sigma), protease inhibitor (Sigma) and sodium orthovanadate at a final concentration of 2 mM) were cooled to 4° C. The cells were washed two times with 5 ml of the ice cold PBS and then lysed in 500 μl of the ice cold lysis buffer. The resulting protein extracts were transferred to 1.7 ml microcentrifuge tubes, and cell debris was removed by spinning at 4° C. at 10,000 rpm for 10 minutes. Then, 450 μl of the cleared solution was transferred to tubes containing 25 μl of Protein Dynabeads (Invitrogen) coated with 10 μl C19 anti-VE cadherin polyclonal antibody (Santa Cruz Biotechnology) (coating performed following manufacturer's protocol). The extracts and beads were then incubated overnight at 4° C. on an orbital shaker to capture VE cadherin from the extracts. The beads were then washed four times with ice cold lysis buffer. To release the protein from the beads, they were heated for 10 minutes at 75° C. in SDS loading dye containing 20% reducing dye (Invitrogen).
The released proteins were separated in 4-20% polyacrylamide gels (Invitrogen) at 120 volts for 1 hour. To determine phosphorylation and total protein in the gels, Pro-Q diamond (Invitrogen) and SYPRO ruby (Invitrogen) protein staining were sequentially performed following the manufacturer's protocol. The gels were photographed and densitometry performed using a Kodak imaging station.

[3] = system: human retinal endothelial cells; assay: Actin stress fiber formation (rhodamine-phalloidin F-actin staining), TNFα, Example 7; details: 30 minutes
[4] = system: human umbilical vein endothelial cells; assay: Transendothelial electrical resistance (TER), Example 4, HUVEC; type: cell-based; details: 1 μM, umbilical vein endothelial cell monolayers
Experimental: as §1, §2

[5] = system: human retinal endothelial cells; assay: Actin stress fiber formation (rhodamine-phalloidin F-actin staining), VEGF, Example 8; type: cell-based; details: for effect on VEGF-induced stress fiber pattern: then VEGF 25 ng/ml 30 minutes
Experimental: . […] To counter-stain for nuclei, 100 μl of a 3 μM DAPI (4,6-diamidino-2-phenylindole, dilactate (Invitrogen)) solution was added to each well. After 5 minutes, the cells were washed two times with 100 μl PBS.

[6] = system: human renal glomerular microvascular endothelial cells; assay: ECIS, Example 12, glomerular cells; details: danazol 1 μM, S1P 1 μM
[7] = system: HUVECs; assay: HUVEC invasion (BioCoat Matrigel Invasion Chambers); type: cell-based, human; details: 10 μM and 100 μM, 24 hours
Experimental: BioCoat Matrigel Invasion Chambers were purchased from BD Biosciences (San Jose, Calif.). Inserts were rehydrated at 37° C. with 500 μl HBSS for 2 hours prior to use in humidified incubator. Trypsinized HUVECs were washed twice with warm EGM-2 containing 0.1% FCS and added to the upper chamber of the invasion insert at 100,000 cells in a total volume of 250 μl. […]. Non-invasive cells were removed from the upper chamber with moistened cotton swabs and then the inserts were washed twice with HBSS. The inserts were then submerged in 10 μM calcein AM prepared in HBSS and incubated for 4 hours. Fluorescence was determined in a microplate reader at 485 nm excitation and 595 nm emission.
All data is presented as representative experiment done in triplicate. Differences between subsets were analyzed using student t-test in Microsoft Excel. P<0.05 was considered statistically significant.

[8] = system: human retinal endothelial cells; assay: Actin stress fiber formation, Example 11, retinal cells
[9] = system: human renal glomerular microvascular endothelial cells; assay: Actin stress fiber formation, Example 11, glomerular cells; details: danazol 1 μM with TNFα 1 ng/ml
[10] = system: human brain endothelial cells; assay: Transendothelial electrical resistance (TER), Example 4, brain cells; type: cell-based; details: 1 μM, brain endothelial cell monolayers, except at the earliest time point
Experimental: as §1, §2

[11] = system: human retinal endothelial cells; assay: TER of retinal endothelial cell monolayers with steroid receptor antagonists, Example 6; details: for effect on TER compared to the control: 0.1 μM, Example 6
[12] = system: Primary human umbilical vein endothelial cells (HUVECs); assay: HUVEC cell proliferation (Celltiter 96 AQueous One Solution assay); type: cell-based; details: 100 μM danazol, all time points
Experimental: Primary human umbilical vein endothelial cells (HUVECs) and EGM-2 growth medium were obtained from Cambrex (Walkersville, Md.). The cells were passaged in medium supplemented with 2% fetal calf serum (FCS) in tissue culture flasks at 37° C. and 5% CO2. Subculturing was performed using trypsin when 60-80% confluence was obtained as specified by the supplier.
Cryopreserved ampoules of passage 2 HUVECs were thawed and plated in 96 well tissue culture plates at 5,000 cells/cm^2. […]. In short, medium was aspirated from each well and the cells were washed with 200 μl Hepes buffered saline (HBSS) from Cambrex warmed to 37° C. 100 μl diluted celltiter solution (15 μl stock+85 μl EGM-2 containing 0.1% FCS) were added to each well and incubated for an additional 4 hours. Optical density was determined by microplate reader using a 530 nm filter after blank subtraction and data presented as OD±standard deviation. The final concentration of ethanol in the wells was less then 0.2% and had no effect on cell proliferation or viability.
All data are presented as representative experiments done in triplicate. Differences between subsets were analyzed using student t-test in Microsoft Excel. P<0.05 was considered statistically significant.
[…]. The celltiter assay is based on the reduction of the assay solution by dehydrogenase enzymes to a formazan dye that directly correlates to cell number.

[13] = system: Akt; assay: Akt phosphorylation (CASE ELISA kit for AKT S473) in retinal endothelial cells; type: cell-based, human; details: all of the concentrations (0.5-50.0 μM)
Experimental: The cells were grown in a 25 cm^2 flask to near confluence in EGM-2 medium (Lonza, Walkersville, Md.) containing 2% fetal calf serum (Lonza). […] The plate was incubated at 37° C. with 5% CO2 for 24 hours. […] After this incubation, the cells were fixed immediately with 4% formaldehyde, refrigerated, and the extent of phosphorylation of Akt determined using the Akt Cellular Activation of Signaling ELISA Kit (CASE™ Kit for AKT 5473; SABiosciences, Frederick, Md.) following the manufacturer's protocols. The CASE™ Kit for AKT S473 quantifies the amount of activated (phosphorylated) Akt protein relative to total Akt protein in parallel assays using a conventional ELISA format with colorimetric detection. The Akt phosphorylation site is serine 473 and is recognized by one of the antibodies used in one of the two parallel assays to provide a measure of activated Akt protein. The other antibody used in the other parallel assay recognizes Akt to provide a measure of total Akt protein. Both primary antibodies are detected using a horseradish peroxidase-labeled secondary antibody. Addition of the manufacturer's Developing Solution for 10 minutes, followed by addition of the manufacturer's Stop Solution, produces the result which can be measured colorimetrically.

[14] = system: HUVECs; assay: HUVEC scratch migration assay; type: cell-based, human; details: 50 μM, 75 μM and 100 μM
Experimental: Passage 8 HUVECs, lot number 8750 (obtained from Lonza), were plated in 6-well plates (ICS BioExpress) in endothelial growth medium-2 (EGM-2) complete medium (obtained from Lonza). […] The monolayers were then “scratched” with a 1000 μl pipet tip and washed two times with warm EGM-2 medium. […] The wells were photographed again. The gaps were measured in each photograph using Adobe Photoshop software, and gap measurements are presented as the number of pixels in the gap.

[15] = system: HUVECs; assay: HUVEC tube formation assay on matrigel plugs; type: cell-based, human; details: 18 hours, 5% FCS
Experimental: To investigate the formation of capillary-like structures by HUVECs, the Angiogenesis System: Endothelial Cell Tube Formation Assay was purchased from BD Biosciences (San Jose, Calif.) and used according to the manufacturer's protocol. In brief, 100,000 HUVECs were seeded onto rehydrated matrigel plugs in 96 well tissue culture plates in the presence of 5% FCS to induce tube formation.
Endothelial cells when cultured in the presence of angiogenic substances and supplied with an extracellular matrix scaffold will differentiate into structures loosely resembling capillary vessels.

[16] = system: human retinal endothelial cells; assay: TER of retinal endothelial cell monolayers with steroid receptor antagonists and hormones, Example 10; details: for effect on TER compared to the control: Example 10, concentrations of Table 10
[17] = system: human retinal endothelial cells; assay: ECIS (electric cell-substrate impedance sensing), Example 12, retinal cells
[18] = 0.1 μM hydroxyflutamide followed by 0.1 μM danazol

For C#C[C@]1(O)CC[C@H]2[C@@H]3CCC4=Cc5oncc5C[C@]4(C)[C@H]3CC[C@@]21C [Danazol, 17α-pregna-2,4-dien-20-yno[2,3-d]isoxazol-17β-ol], the “effect on TER” value [1] was “enhanced TER measurements”, the “effect on VE-cadherin phosphorylation” value [2] was “caused an increase in VE-cadherin phosphorylation” and the F-actin staining pattern ([3]; 0.1 μM danazol) was “diffuse staining throughout the cytoplasm”. The F-actin staining pattern ([3]; 10.0 μM danazol) was “stress fibers with multiple focal points”, the “effect on TNFα-induced stress fiber development” value ([3]; TNFα 50 ng/ml, danazol 0.1 μM or 10 μM, LY294002 10 μM) was “decreased the number of cells exhibiting stress fiber development” and the “effect on TER” value [4] was “enhanced TER measurements”. The “effect on VEGF-induced stress fiber pattern” value ([5]; 0.1 μM danazol 30 minutes) was “made the stress fibers less pronounced and some diffuse staining appeared”, the F-actin staining pattern ([5]; 0.1 μM danazol alone) was “diffuse F-actin staining throughout the cytoplasm” and the “effect on VEGF-induced stress fiber pattern” value ([5]; 1.0 μM danazol 30 minutes) was “fewer thick stress fibers, but focal points were seen on contact surfaces”. For the same molecule, the F-actin staining pattern ([5]; 1.0 μM danazol alone) was “the diffuse staining persisted, but stress fibers and focal points around the perimeter of most cells were visible”, the “effect on VEGF-induced stress fiber pattern” value ([5]; 10.0 μM danazol 30 minutes) was “strong stress fiber development with focal points” and the F-actin staining pattern ([5]; 10.0 μM danazol alone) was “no longer any diffuse staining, and stress fiber development and focal points were seen”. The “time after treatment until which there was no effect on ECIS” value [6] was “about 30 hours”, the “effect on FCS-induced cell invasion” value [7] was “no effect” and the “effect on S1P-induced cortical actin rings” value ([8]; danazol 1 μM with S1P 1 μM, at 3 hours) was “seemed to enhance the cortical rings”. For the same molecule, the “effect on TNFα-induced stress fibers” value ([8]; danazol 1 μM with TNFα 1 ng/ml) was “decreased the stress fiber formation and/or the thickness of the fibers at all times”, the “effect on TNFα-induced stress fibers” value [9] was “decreased the stress fiber formation and the thickness of the fibers at all times” and the “effect on TER” value [10] was “did not appear to have much effect”. For the same molecule, the “effect on the TER reduction caused by hydroxyflutamide” value [11, 18] was “prevented the reduction caused by hydroxyflutamide”, the “effect on TER compared to the control” value [11] was “increased the TER measurements” and the “effect on cell proliferation” value [12] was “complete arrest of cell proliferation”. The “effect on Akt phosphorylation” value [13] was “caused an increase in Akt phosphorylation”, the “effect on HUVEC migration” value [14] was “significantly inhibit HUVEC migration” and the “effect on tube formation” value ([15]; 1 μM or 10 μM) was “no effect on tube formation”. For the same molecule, the “effect on tube formation” value ([15]; 50 μM) was “effective inhibitor of tube formation”, the “effect on the TER reduction caused by hydroxyflutamide” value [16, 18] was “prevented the reduction caused by hydroxyflutamide” and the “effect on TER compared to the control” value [16] was “increased the TER measurements”.

In the case of C[C@]12CC[C@@H]3c4ccc(O)cc4C[C@@H](CCCCCCCCC[S+]([O-])CCCC(F)(F)C(F)(F)F)[C@H]3[C@@H]1CC[C@@H]2O (stereo partly drawn) [Fluvestrant, fluvestrant], the “effect on TER compared to the control” value [11] is reported as “increased the TER measurements” and the “effect on TER compared to the control” value [16] is reported as “essentially no effect”.

For CC(C)(O)C(=O)Nc1ccc([N+](=O)[O-])c(C(F)(F)F)c1 [Hydroxyflutamide, hydroxyflutamide], the “effect on TER compared to the control” value [11] was “reduced the readings” and the “effect on TER compared to the control” value [16] was “reduced the readings”.

With CCCCCCCCCCCCC/C=C/[C@@H](O)[C@@H](N)COP(=O)(O)O [S1P, sphingosine-1 phosphate] the “start of increase of ECIS as compared to untreated cells, after treatment” value ([17]; S1P 1 μM alone) was no more than 15 min, the “persistence of increase of ECIS” value ([17]; danazol 1.0 μM, S1P 1 μM) was “about 3 hours” and the “time after treatment until which there was no effect on ECIS” value [6] was “about 30 hours”.

In the case of C[C@]12CC[C@H]3[C@@H](CCC4=CC(=O)CC[C@@]43C)[C@@H]1CC[C@@H]2O [Testosterone, testosterone], the “effect on TER compared to the control” value [16] is reported as “reduced the readings very slightly”.

TNFα was tested, and the F-actin staining pattern ([3]; TNFα 50 ng/ml alone) was “strong stress fiber development with intensely staining focal points”.

With VEGF the “effect on VE-cadherin phosphorylation” value [2] was “caused an even greater increase in VE-cadherin phosphorylation”, the “Relative intensity - SYPRO results (total protein)” value ([2]; Nil (ethanol control) 1.00) was 0.84 and the F-actin staining pattern ([5]; VEGF 25 ng/ml alone, 30 minutes) was “strong stress fiber development”.

From patent US8227457B2, “Method for treatment of diseases” (DMI Acquisition Corp., priority 2009, dated 2012)
